In assay [1] the test system is neointima formation. As to conditions: animal models; cited from earlier work.
Assay [2] has as its target Cdk6/CyclinD3 (Homo sapiens (Human), UniProt Q00534). Description: Cdk6 kinase inhibition assay with recombinant Cdk6/CyclinD3, Rb substrate, [33P]-ATP filter plate. The assay is classed as biochemical. As to conditions: 25 μM ATP, read-out: Cdk 6 IC50. In outline:
(§1)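 Recombinant Cdk4/CyclinD1 or Cdk6/CyclinD3 phosphorylated Rb protein with [33P]-ATP for 1 h at room temperature. Protein was TCA-precipitated on filter plates and bound radioactivity counted. IC50 by nonlinear regression.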

Assay [3] deals with Cdk4/CyclinD1 (Homo sapiens (Human), UniProt P11802). Kind of assay: Cdk4 kinase inhibition assay with recombinant Cdk4/CyclinD1, Rb substrate, [33P]-ATP filter plate. In kind it is biochemical. As to conditions: 25 μM ATP, read-out: Cdk 4 IC50. In outline:
as §1

pIC50: −log10 of the molar value.

Chain of Cdk6/CyclinD3 (Q00534 whole entry): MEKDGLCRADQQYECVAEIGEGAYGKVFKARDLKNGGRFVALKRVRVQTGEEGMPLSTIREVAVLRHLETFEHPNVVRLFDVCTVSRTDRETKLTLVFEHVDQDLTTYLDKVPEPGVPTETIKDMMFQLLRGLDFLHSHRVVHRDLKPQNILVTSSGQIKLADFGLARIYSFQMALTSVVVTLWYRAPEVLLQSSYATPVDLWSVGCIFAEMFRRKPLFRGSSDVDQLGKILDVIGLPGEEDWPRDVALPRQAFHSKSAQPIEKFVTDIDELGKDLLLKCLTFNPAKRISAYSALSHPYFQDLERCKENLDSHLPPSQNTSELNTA
Chain of Cdk6/CyclinD3 (P30281 whole entry partner): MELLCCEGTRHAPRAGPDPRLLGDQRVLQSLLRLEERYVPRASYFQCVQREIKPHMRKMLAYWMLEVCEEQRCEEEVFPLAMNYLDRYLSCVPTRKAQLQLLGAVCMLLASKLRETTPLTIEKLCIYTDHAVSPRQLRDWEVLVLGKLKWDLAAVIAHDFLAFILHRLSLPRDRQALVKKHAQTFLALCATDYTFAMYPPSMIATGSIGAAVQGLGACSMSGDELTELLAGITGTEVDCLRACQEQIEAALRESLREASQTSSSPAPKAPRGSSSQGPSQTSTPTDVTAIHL
Chain of Cdk4/CyclinD1 (P11802 whole entry): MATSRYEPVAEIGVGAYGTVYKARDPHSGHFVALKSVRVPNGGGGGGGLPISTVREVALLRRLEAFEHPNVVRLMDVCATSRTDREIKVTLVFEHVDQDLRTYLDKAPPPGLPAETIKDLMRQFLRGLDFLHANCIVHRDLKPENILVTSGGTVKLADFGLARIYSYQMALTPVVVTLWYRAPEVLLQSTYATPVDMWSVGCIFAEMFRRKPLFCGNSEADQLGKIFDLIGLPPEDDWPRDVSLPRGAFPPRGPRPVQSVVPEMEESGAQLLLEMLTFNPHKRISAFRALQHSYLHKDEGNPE
Chain of Cdk4/CyclinD1 (P24385 whole entry partner): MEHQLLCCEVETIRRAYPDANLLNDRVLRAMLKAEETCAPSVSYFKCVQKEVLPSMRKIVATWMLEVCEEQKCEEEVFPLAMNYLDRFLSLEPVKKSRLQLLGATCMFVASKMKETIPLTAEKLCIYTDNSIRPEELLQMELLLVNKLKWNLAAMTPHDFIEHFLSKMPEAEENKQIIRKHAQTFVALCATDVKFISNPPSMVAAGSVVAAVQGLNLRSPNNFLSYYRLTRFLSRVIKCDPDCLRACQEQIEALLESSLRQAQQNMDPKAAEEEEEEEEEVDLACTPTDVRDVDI

Take `COc1ccc(CNc2nc(N(CCO)CCO)nc3c2ncn3C(C)C)cc1` [CVT-313]: the “inhibition of neointima formation” value in assay [1] is “significant inhibition of neointima formation”.
For `CN(C)C1CCN(c2ccc(Nc3ncc4c5ccncc5n([C@H]5CCC[C@H]5O)c4n3)nn2)CC1` [Example 355], the values for the pIC50 in assay [2] and in assay [3] were 6.56 and 6.75, respectively.
With `C[C@@H](O)Cn1c2cnccc2c2cnc(Nc3ccc(N4CCNCC4)cn3)nc21` [Example 356], the pIC50 in assay [2] was 6.43; in assay [3] it was 6.44.
On to `C[C@@H](O)Cn1c2cnccc2c2cnc(Nc3ccc(N4CCC(N(C)C)CC4)cn3)nc21` [Example 357], for which the values for the pIC50 in assay [2] and in assay [3] were 6.50 and 6.53, respectively.
Turning to `C[C@@H](O)Cn1c2cnccc2c2cnc(Nc3ccc(N4CC[C@@H](O)C4)cn3)nc21` [Example 358], the negative logarithm of the IC50 (pIC50) in assay [2] was 6.23; in assay [3] it was 6.33.
As for `O[C@@H]1CCC[C@@H]1n1c2cnccc2c2cnc(Nc3ccc(N4CCNCC4)cn3)nc21` [Example 361], the pIC50 in assay [2] is 7.24; in assay [3] it was 7.36.
With `C[C@@H](CO)n1c2cnccc2c2cnc(Nc3ccc(N4CCNCC4)cn3)nc21` [Example 369], the pIC50 in assay [2] was 7.54; in assay [3] it was 7.35.
The corresponding values for `CNC1CCN(c2ccc(Nc3ncc4c5ccncc5n(C5CCC5)c4n3)nn2)CC1` [Example 434] are 7.72 and 7.89.
`O[C@@H]1CCN(c2ccc(Nc3ncc4c5ccncc5n(C5CCC5)c4n3)nc2)C1` [Example 435]: the pIC50 was 7.04 in assay [2] and 7.38 in assay [3].
Regarding `C[C@H](CO)NC1CCN(c2ccc(Nc3ncc4c5ccncc5n(C5CCCC5)c4n3)nc2)CC1` [Example 436, (2R)-2-((1-(6-((9-cyclopentyl-9H-pyrido[4′,3′:4,5]pyrrolo[2,3-d]pyrimidin-2-yl)amino)-3-pyridinyl)-4-piperidinyl)amino)-1-propanol], the pIC50 was 8.29 in assay [2] and 7.89 in assay [3].
In the case of `c1cc2c3cnc(Nc4ccc(N5CCC(N6CCCC6)CC5)nn4)nc3n(C3CCCC3)c2cn1` [Example 437], the pIC50 is 7.52 in assay [2] and 7.64 in assay [3].
As to `OCCNC1CCN(c2ccc(Nc3ncc4c5ccncc5n(C5CCCC5)c4n3)nn2)CC1` [Example 438], the pIC50 was 7.92 in assay [2] and 8.38 in assay [3].
As for `C[C@H](O)CNC1CCN(c2ccc(Nc3ncc4c5ccncc5n(C5CCCC5)c4n3)nn2)CC1` [Example 439], the results for the pIC50 in assay [2] and in assay [3] were 8.24 and 8.43, respectively.
`CN(CCO)C1CCN(c2ccc(Nc3ncc4c5ccncc5n(C5CCCC5)c4n3)nn2)CC1` [Example 440]: the pIC50 was 7.85 in assay [2] and 8.24 in assay [3].
Turning to `C[C@@H](O)CNC1CCN(c2ccc(Nc3ncc4c5ccncc5n(C5CCCC5)c4n3)nn2)CC1` [Example 441], the values for the pIC50 in assay [2] and in assay [3] were 8.42 and 8.77, respectively.
On the same counts, the results for `C[C@@H](CO)NC1CCN(c2ccc(Nc3ncc4c5ccncc5n(C5CCCC5)c4n3)nn2)CC1` [Example 442] are 7.89 and 8.82.
Turning to `CNCCN(C)C1CCN(c2ccc(Nc3ncc4c5ccncc5n(C5CCCC5)c4n3)nn2)CC1` [Example 443], the pIC50 in assay [2] was 7.80; in assay [3], 8.32.
Consider `C[C@H](CO)NC1CCN(c2ccc(Nc3ncc4c5ccncc5n(C5CCCC5)c4n3)nn2)CC1` [Example 444], for which the pIC50 is 7.96 in assay [2] and 8.72 in assay [3].
The corresponding values for `OCC(CO)NC1CCN(c2ccc(Nc3ncc4c5ccncc5n(C5CCCC5)c4n3)nn2)CC1` [Example 445] are 8.20 and 8.66.
On to `OC[C@H](O)CNC1CCN(c2ccc(Nc3ncc4c5ccncc5n(C5CCCC5)c4n3)nn2)CC1` [Example 446], for which the pIC50 was 8.32 in assay [2] and 8.89 in assay [3].
For `c1cc2c3cnc(Nc4ccc(N5CCC(N6CCOCC6)CC5)nn4)nc3n(C3CCCC3)c2cn1` [Example 447], the figures for the negative-log IC50 (pIC50) in assay [2] and in assay [3] were 7.59 and 8.55, respectively.
In the case of `OC1CN(C2CCN(c3ccc(Nc4ncc5c6ccncc6n(C6CCCC6)c5n4)nn3)CC2)C1` [Example 448], the figures for the pIC50 in assay [2] and in assay [3] were 7.66 and 8.00, respectively.
In the case of `O[C@@H]1CCN(C2CCN(c3ccc(Nc4ncc5c6ccncc6n(C6CCCC6)c5n4)nn3)CC2)C1` [Example 449], the pIC50 in assay [2] is 7.44; in assay [3], 7.92.
The corresponding values for `O[C@H]1CCN(C2CCN(c3ccc(Nc4ncc5c6ccncc6n(C6CCCC6)c5n4)nn3)CC2)C1` [Example 450] are 7.80 and 8.00.
With `O[C@@H]1CCCN(C2CCN(c3ccc(Nc4ncc5c6ccncc6n(C6CCCC6)c5n4)nn3)CC2)C1` [Example 451], the pIC50 in assay [2] is 7.74; in assay [3], 7.89.
Take `O[C@H]1CCCN(C2CCN(c3ccc(Nc4ncc5c6ccncc6n(C6CCCC6)c5n4)nn3)CC2)C1` [Example 452]: the pIC50 is 7.52 in assay [2] and 8.15 in assay [3].
For the compound `OCCCNC1CCN(c2ccc(Nc3ncc4c5ccncc5n(C5CCCC5)c4n3)nn2)CC1` [Example 453], the results for the pIC50 in assay [2] and in assay [3] were 7.89 and 8.34, respectively.
On to `CCN(CCO)C1CCN(c2ccc(Nc3ncc4c5ccncc5n(C5CCCC5)c4n3)nn2)CC1` [Example 454], for which the pIC50 in assay [2] was 7.96; in assay [3] it was 8.28.
On to `OC1CCN(C2CCN(c3ccc(Nc4ncc5c6ccncc6n(C6CCCC6)c5n4)nn3)CC2)CC1` [Example 455], for which the pIC50 was 8.05 in assay [2] and 8.15 in assay [3].
Consider `FC(F)(F)CNC1CCN(c2ccc(Nc3ncc4c5ccncc5n(C5CCCC5)c4n3)nn2)CC1` [Example 456], for which the values for the pIC50 in assay [2] and in assay [3] were 6.42 and 6.96, respectively.
`CN(CCO)C1CCN(c2ccc(Nc3ncc4c5ccncc5n(C5CCCC5)c4n3)nc2)CC1` [Example 457]: the pIC50 is 7.43 in assay [2] and 7.72 in assay [3].
With `OCCNC1CCN(c2ccc(Nc3ncc4c5ccncc5n(C5CCCC5)c4n3)nc2)CC1` [Example 458], the results for the negative logarithm of the IC50 (pIC50) in assay [2] and in assay [3] were 8.29 and 8.32, respectively.
As to `O[C@H]1CCN(C2CCN(c3ccc(Nc4ncc5c6ccncc6n(C6CCCC6)c5n4)nc3)CC2)C1` [Example 462], the figures for the pIC50 in assay [2] and in assay [3] were 6.46 and 6.47, respectively.
With `OC1CCN(C2CCN(c3ccc(Nc4ncc5c6ccncc6n(C6CCCC6)c5n4)nc3)CC2)CC1` [Example 463], the pIC50 in assay [2] was 7.74; in assay [3], 7.82.
For `CCNC1CCN(c2ccc(Nc3ncc4c5ccncc5n(C5CCCC5)c4n3)nc2)CC1` [Example 464], the results for the pIC50 in assay [2] and in assay [3] were 8.51 and 8.70, respectively.
Consider `c1cc2c3cnc(Nc4ccc(N5CCC(NC6CC6)CC5)cn4)nc3n(C3CCCC3)c2cn1` [Example 465], for which the results for the pIC50 in assay [2] and in assay [3] were 7.92 and 8.39, respectively.
On the same counts, the results for `CCCNC1CCN(c2ccc(Nc3ncc4c5ccncc5n(C5CCCC5)c4n3)nc2)CC1` [Example 466] are 7.85 and 8.33.
On to `FCCNC1CCN(c2ccc(Nc3ncc4c5ccncc5n(C5CCCC5)c4n3)nc2)CC1` [Example 467], for which the pIC50 was 7.68 in assay [2] and 8.14 in assay [3].
Regarding `c1cc2c3cnc(Nc4ccc(N5CCC(NC6CCC6)CC5)cn4)nc3n(C3CCCC3)c2cn1` [Example 468], the pIC50 in assay [2] was 7.72; in assay [3], 8.38.
For `CC(C)NC1CCN(c2ccc(Nc3ncc4c5ccncc5n(C5CCCC5)c4n3)nc2)CC1` [Example 469], the values for the pIC50 in assay [2] and in assay [3] were 7.70 and 8.24, respectively.
Turning to `FC(F)(F)CNC1CCN(c2ccc(Nc3ncc4c5ccncc5n(C5CCCC5)c4n3)nc2)CC1` [Example 470], the pIC50 in assay [2] is 7.42; in assay [3] it was 7.96.
For the compound `CN(CC(=O)O)C1CCN(c2ccc(Nc3ncc4c5ccncc5n(C5CCCC5)c4n3)nc2)CC1` [Example 471], the negative-log IC50 (pIC50) in assay [2] was 7.74; in assay [3], 8.39.
Turning to `COC(=O)CNC1CCN(c2ccc(Nc3ncc4c5ccncc5n(C5CCCC5)c4n3)nc2)CC1` [Example 472], the results for the negative logarithm of the IC50 (pIC50) in assay [2] and in assay [3] were 7.47 and 7.62, respectively.
For `CCN(CCO)C1CCN(c2ccc(Nc3ncc4c5ccncc5n(C5CCCC5)c4n3)nc2)CC1` [Example 473], the pIC50 is 7.55 in assay [2] and 8.01 in assay [3].
Regarding `OC1CN(C2CCN(c3ccc(Nc4ncc5c6ccncc6n(C6CCCC6)c5n4)nc3)CC2)C1` [Example 474], the pIC50 in assay [2] was 7.92; in assay [3], 8.30.
For `C[C@@H](CO)NC1CCN(c2ccc(Nc3ncc4c5ccncc5n(C5CCCC5)c4n3)nc2)CC1` [Example 475], the pIC50 was 8.10 in assay [2] and 8.59 in assay [3].
For the compound `COC(=O)CNC1CCN(c2ccc(Nc3ncc4c5ccncc5n(C5CCCC5)c4n3)nn2)CC1` [Example 476], the pIC50 in assay [2] is 7.59; in assay [3], 8.77.
For the compound `O=C(O)CNC1CCN(c2ccc(Nc3ncc4c5ccncc5n(C5CCCC5)c4n3)nc2)CC1` [Example 477], the pIC50 in assay [2] was 8.29; in assay [3], 8.70.
`O=C(O)CNC1CCN(c2ccc(Nc3ncc4c5ccncc5n(C5CCCC5)c4n3)nn2)CC1` [Example 478]: the values for the pIC50 in assay [2] and in assay [3] were 8.24 and 8.70, respectively.
As to `CN(C)CCN(C)C1CCN(c2ccc(Nc3ncc4c5ccncc5n(C5CCCC5)c4n3)nn2)CC1` [Example 479], the pIC50 was 7.77 in assay [2] and 8.10 in assay [3].
Consider `CN(C)CCNC1CCN(c2ccc(Nc3ncc4c5ccncc5n(C5CCCC5)c4n3)nn2)CC1` [Example 480], for which the pIC50 in assay [2] is 8.00; in assay [3], 8.31.
In the case of `OC[C@@H](O)CNC1CCN(c2ccc(Nc3ncc4c5ccncc5n(C5CCCC5)c4n3)nn2)CC1` [Example 481], the pIC50 in assay [2] is 7.92; in assay [3], 8.10.
